The record followed here is patent US10253024B2, “Polycyclic indoline and indolenine compounds” (The Regents of the University of Colorado, a body corporate, priority 2015, dated 2019).

Each structure is given as a SMILES string.

Assay type in all cases: cell-based, S. aureus
Assay [1] has as its system BAA-44, NRS-100, NRS-384, NR-46414 and NR-46421. Briefly: MIC of 11b on its own in a variety of MRSA and VRSA strains. The following applies: all strains tested. The method, then: (§1) The minimum re-sensitizing concentrations (MRCS) of 11b to re-sensitize a variety of MRSA strains to β-lactam antibiotics, amox/clav and cefazolin was also evaluated.
The minimal inhibitory concentrations (MICS) of antimicrobial compounds and 11b were determined by the broth microdilution method detailed in the Clinical and Laboratory Standards Institute (CLSI) handbook. All antimicrobial compounds were purchased from Sigma-Aldrich. The growth media used for all MIC experiments was Mueller Hinton Broth (MHB) purchased from HIMEDIA through VWR (cat: 95039-356). The inoculum was prepared by diluting a bacterial day culture (OD600 0.15-0.4) to OD600 0.002. This dilution was further diluted two fold when added to 96 well microplates (USA Scientific CytoOne 96-well TC plate, cat: CC7682-7596) for a final inoculum concentration of OD600 0.001. All plates were incubated at 37° C. with shaking for 18 hours before results were interpreted.

Assay [2] concerns MRSA strain ATCC BAA-44. Kind of assay: Checkerboard MIC study of 11b and methicillin (FICI). The following applies: 11b with methicillin, ≤0.5 indicates synergy. The method, then: Tetracyclic indolenine compounds were then evaluated in a series of bacterial whole-cell assays. Compound 11b potentiated the activity of methicillin in a multi-drug resistant MRSA strain, ATCC BAA-44. To assess the degree of synergy between 11b and methicillin, a checkerboard minimum inhibitory concentration (MIC) study was performed.

The test system of assay [3] is BAA-44, NRS-100, NRS-384, NR-46414 and NR-46421. Briefly: MRC of 11b for amox/clav and cefazolin in a variety of MRSA and VRSA strains. The settings on record: all strains tested. The method, then:
as §1
Antibiotic MIC values where S. aureus is considered susceptible were determined from the CLSI handbook. MHB was supplemented with the antimicrobial at a concentration two fold greater than the CLSI susceptible MIC value. Two-fold serial dilutions of 11b were prepared in antibiotic supplemented media in 96-well microplates. These were inoculated with MRSA diluted to OD600 0.002 and incubated at 37° C. with shaking for 18 hours before results were interpreted. The concentration of 11b in antibiotic supplemented media at which there was no observable growth was considered the minimum resensitizing concentration (MRC). For amoxicillin/clavulanic acid, the initial concentration was 8/4 μg/mL; for cefazolin, 16 μg/mL. A 50 μL portion of the antibiotic containing media was added to each well of 96-well plates, and 100 μL was added to the top row. A 1.28 μL portion of 5 mg/mL 11b was added to the top row of each plate to afford a concentration of 64 μg/mL in the top row of each plate, and 2-fold serial dilutions were performed down the columns. […] The MRC value was determined as the concentration of 11b in the presence of antibiotic at which there was no observable overnight growth.

For the compound `C=C1CCC2C3=Nc4ccccc4C13CCN2C(=O)c1ccc(Cl)cc1` (stereo not drawn) [Compound 11b, 11-[(4-Chlorophenyl)carbonyl]-14-methylidene-8,11-diazatetracyclo[8.3.3.0^1,9.0^2.7]hexadeca-2(7),3,5,8-tetraene], in assay [1], the MICs lay within 32 to 64 µg/mL. Moreover, in assay [2], the “Fractional Inhibitory Concentration Index (FICI)” value was 0.039. This compound yielded an MRCs in assay [3] of 0.25 to 2 µg/mL.
